Test system: Saccharomyces cerevisiae yeast
Assay: Laboratory fermentation trial: formation of alcohol and lactic acid (HPLC)
Type: cell-based
Procedure: A study was conducted to determine the degree of impact of the fermentation antimicrobial Penicillin G Procaine and Penicillin G potassium during alcohol production by fermentation. The antimicrobial impact was inferred by conducting a series of fermentations and measuring if the above said antibiotics interfered with the cell growth and the fermentation function of Saccharomyces cerevisiae yeast used in the fermentation phase. This study provided analysis of what impact, if any, the Penicillin G Procaine or Penicillin G Potassium has on the yeast during lab scale fermentations, specifically BioFerm® XR yeast from North American Bioproducts Corporation (NABC). This study observed the ability of yeast to replicate and ferment a corn mash substrate with and without the presence of Penicillin G Procaine or Penicillin G Potassium. This study was set up in a series of fermentation vessels. All antibiotic concentrations were tested in triplicate. Cell counts were done on one flask for each treatment at 12, 24, 36 and 48 hours and testing of the fermentation reactions by HPLC was also performed at 12, 24, 36 and 48 hours. The experiment was set as follows: 3. Fermentations were set up using 31% solids corn mash using saccharifying enzymes and the following procedure: A. Yeast Conditioning: • 1. Add 2 g yeast to 10 ml sterile water for each 3 flasks to test, (14 g yeast to 70 ml water) into a sterile 250 ml flask and place in water bath set to 100° F. • 2. Incubate at 100° F. for 30 minutes with occasional mixing. • 3. Remove flasks from water bath and divide suspension between the all flasks for the trial. B. Fermentation Procedure • 1. To prepared mash, add the following. • a. Add 0.58 g urea/liter mash and mix. • b. Add 0.2 ml GA per liter and mix. • 2. Remove sample for background HPLC testing. • 3. Add antibiotic solution to labeled sterile 250 ml flasks. • 4. Add hydrated yeast suspension to mash and mix well. • 5. Add sterile stir bar to each flask and add about 150 ml mash into each 250 ml flask for a total of 21 flasks. • 6. Cover each flask with a gas trap in a sterilized stopper. • 7. Place in a 33° C. water bath with continuous mixing at 280 rpm at 75% power. • 8. Remove sample at 12 hr interval to perform cell count, viability and budding. • 9. Incubate sample up to 48 hours, enough time for complete fermentation • 10. Collect samples at the following times for cell counts and HPLC testing: 12 hours; 24 hours; 36 hours and 48 hours The proper functioning of the yeast is often attributed to the higher efficiency with which it can convert the sugars formed in a fermentation process to the desired alcohol. Also the number of yeast cells in a fermentation mix is an important factor as it will be entropically favored to convert the available sugar molecules to ethanol and carbon dioxide. The sugar in the fermentation mix apart from being converted to ethanol is also used by the yeast for its metabolism and growth and by the concerned “industry normal” Lactobacillus fermentum bacteria converting the sugar to lactic acid.

## CC1(C)S[C@@H]2[C@H](NC(=O)Cc3ccccc3)C(=O)N2[C@H]1C(=O)[O-].[K+] [Penicillin G Potassium]
5 ppm, 12 hours
  % Lactic Acid: 0.083%
  % wt EtOH: 6.16 % wt
5 ppm, 24 hours
  % Lactic Acid: 0.100%
  % wt EtOH: 9.12 % wt
5 ppm, 36 hours
  % Lactic Acid: 0.108%
  % wt EtOH: 11.12 % wt
5 ppm, 48 hours
  % Lactic Acid: 0.104%
  % wt EtOH: 11.89 % wt
15 ppm, 12 hours
  % Lactic Acid: 0.081%
  % wt EtOH: 6.05 % wt
15 ppm, 24 hours
  % Lactic Acid: 0.100%
  % wt EtOH: 9.15 % wt
15 ppm, 36 hours
  % Lactic Acid: 0.105%
  % wt EtOH: 11.05 % wt
15 ppm, 48 hours
  % Lactic Acid: 0.100%
  % wt EtOH: 11.92 % wt
30 ppm, 12 hours
  % Lactic Acid: 0.082%
  % wt EtOH: 6.07 % wt
30 ppm, 24 hours
  % Lactic Acid: 0.096%
  % wt EtOH: 9.13 % wt
30 ppm, 36 hours
  % Lactic Acid: 0.106%
  % wt EtOH: 11.12 % wt
30 ppm, 48 hours
  % Lactic Acid: 0.101%
  % wt EtOH: 11.83 % wt

## CC1(C)S[C@@H]2[C@H](NC(=O)Cc3ccccc3)C(=O)N2[C@H]1C(=O)O.CCN(CC)CCOC(=O)c1ccc(N)cc1 [Penicillin G Procaine]
5 ppm, 12 hours
  % Lactic Acid: 0.082%
  % wt EtOH: 6.21 % wt
5 ppm, 24 hours
  % Lactic Acid: 0.098%
  % wt EtOH: 9.24 % wt
5 ppm, 36 hours
  % Lactic Acid: 0.108%
  % wt EtOH: 11.14 % wt
5 ppm, 48 hours
  % Lactic Acid: 0.104%
  % wt EtOH: 11.94 % wt
15 ppm, 12 hours
  % Lactic Acid: 0.085%
  % wt EtOH: 6.16 % wt
15 ppm, 24 hours
  % Lactic Acid: 0.099%
  % wt EtOH: 9.13 % wt
15 ppm, 36 hours
  % Lactic Acid: 0.106%
  % wt EtOH: 11.13 % wt
15 ppm, 48 hours
  % Lactic Acid: 0.099%
  % wt EtOH: 11.98 % wt
30 ppm, 12 hours
  % Lactic Acid: 0.081%
  % wt EtOH: 6.34 % wt
30 ppm, 24 hours
  % Lactic Acid: 0.098%
  % wt EtOH: 9.16 % wt
30 ppm, 36 hours
  % Lactic Acid: 0.103%
  % wt EtOH: 11.18 % wt
30 ppm, 48 hours
  % Lactic Acid: 0.100%
  % wt EtOH: 11.91 % wt
